Molecules are shown by their SMILES.

The target in the experiment is GLP-1R (Homo sapiens, UniProt P43220). Nature of the experiment: GLP-1R Activation - cAMP Assay. As to conditions: cAMP increase in CHO cells stably expressing GLP-1R; each compound run on one of the two cAMP assays (Assay 1 or Assay 2, not specified). The format is cell-based. An outline of the steps: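 CHO cells stably expressing GLP-1R, plated at 1,000 cells/well overnight, then equilibrated 1 h in HBSS with 20 mM Hepes and 0.1% BSA. Agonist added as 10-point dose response for 30 min at 37 °C. cAMP measured by HTRF (Cisbio Gs Dynamic kit); EC50 from sigmoidal fit.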
Chain of GLP-1R (P43220 24-463): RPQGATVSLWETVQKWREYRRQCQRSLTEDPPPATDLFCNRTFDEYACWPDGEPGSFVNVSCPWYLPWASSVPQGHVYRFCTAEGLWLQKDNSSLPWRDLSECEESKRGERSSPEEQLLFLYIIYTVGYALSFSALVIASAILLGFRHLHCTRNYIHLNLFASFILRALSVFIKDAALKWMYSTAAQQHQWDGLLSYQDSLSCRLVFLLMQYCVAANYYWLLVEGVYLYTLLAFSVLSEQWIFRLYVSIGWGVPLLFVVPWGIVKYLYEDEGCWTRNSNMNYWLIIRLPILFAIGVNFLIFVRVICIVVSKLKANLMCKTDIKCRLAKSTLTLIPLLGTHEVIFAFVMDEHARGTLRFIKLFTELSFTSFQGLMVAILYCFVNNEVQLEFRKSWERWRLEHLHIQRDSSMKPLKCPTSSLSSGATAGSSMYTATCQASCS
Background: cAMP levels reflect the balance of adenylyl cyclase and phosphodiesterase activity.
Broadly, the EC50 is the concentration needed to bring the measured effect to its halfway point. Take `Cc1cc(F)ccc1COc1cccc(-c2cc(F)c(Cc3nc4ccc(C(=O)O)cc4n3[C@@H]3COCC3(C)C)cc2F)n1` [Example 465, (S)-2-(2,5-difluoro-4-(6-((4-fluoro-2-methylbenzyl)oxy)pyridin-2-yl)benzyl)-1-(4,4-dimethyltetrahydrofuran-3-yl)-1H-benzo[d]imidazole-6-carboxylic acid]: the EC50 was 0.18 nM.
Next, `CC1(C)COC[C@H]1n1c(Cc2cc(F)c(-c3cccc(OCc4ccc(F)cc4F)n3)cc2F)nc2ccc(C(=O)O)cc21` [Example 466, (S)-2-(4-(6-((2,4-difluorobenzyl)oxy)pyridin-2-yl)-2,5-difluorobenzyl)-1-(4,4-dimethyltetrahydrofuran-3-yl)-1H-benzo[d]imidazole-6-carboxylic acid]: 0.124 nM; `COC[C@H]1COC[C@H]1n1c(Cc2cc(F)c(-c3ccc(F)c(OCc4ccc(C#N)cc4)n3)cc2F)nc2ccc(C(=O)O)cc21` [Example 467, 2-(4-(6-((4-cyanobenzyl)oxy)-5-fluoropyridin-2-yl)-2,5-difluorobenzyl)-1-((3S,4S)-4-(methoxymethyl)tetrahydrofuran-3-yl)-1H-benzo[d]imidazole-6-carboxylic acid]: 0.077 nM; `COC[C@H]1COC[C@H]1n1c(Cc2cc(F)c(-c3cccc(OCc4ccc(C#N)cc4)n3)cc2F)nc2ccc(C(=O)O)cc21` [Example 468, 2-(4-(6-((4-cyanobenzyl)oxy)pyridin-2-yl)-2,5-difluorobenzyl)-1-((3S,4S)-4-(methoxymethyl)tetrahydrofuran-3-yl)-1H-benzo[d]imidazole-6-carboxylic acid]: 0.118 nM.
Next, `CC1(C)COC[C@H]1n1c(Cc2cc(F)c(-c3cccc(OCc4ccc(Cl)cc4C(F)(F)F)n3)cc2F)nc2ccc(C(=O)O)cc21` [Example 469, (S)-2-(4-(6-((4-chloro-2-(trifluoromethyl)benzyl)oxy)pyridin-2-yl)-2,5-difluorobenzyl)-1-(4,4-dimethyltetrahydrofuran-3-yl)-1H-benzo[d]imidazole-6-carboxylic acid]: 1.6 nM; `CC1(C)COC[C@H]1n1c(Cc2cc(F)c(-c3cccc(OCc4ccc(C(F)(F)F)nn4)n3)cc2F)nc2ccc(C(=O)O)cc21` [Example 470, (S)-2-(2,5-difluoro-4-(6-((6-(trifluoromethyl)pyridazin-3-yl)methoxy)pyridin-2-yl)benzyl)-1-(4,4-dimethyltetrahydrofuran-3-yl)-1H-benzo[d]imidazole-6-carboxylic acid]: 1.61 nM; `C[C@H]1COC[C@H]1n1c(Cc2cc(F)c(-c3ccc(F)c(OCc4ccc(Cl)cc4F)n3)cc2F)nc2ccc(C(=O)O)cc21` [Example 471, 2-(4-(6-((4-chloro-2-fluorobenzyl)oxy)-5-fluoropyridin-2-yl)-2,5-difluorobenzyl)-1-((3S,4R)-4-methyltetrahydrofuran-3-yl)-1H-benzo[d]imidazole-6-carboxylic acid]: 0.041 nM.
Compound `C[C@H]1COC[C@H]1n1c(Cc2cc(F)c(-c3cccc(OCc4ccc(Cl)cc4F)n3)cc2F)nc2ccc(C(=O)O)cc21` [Example 472, 2-(4-(6-((4-chloro-2-fluorobenzyl)oxy)pyridin-2-yl)-2,5-difluorobenzyl)-1-((3S,4R)-4-methyltetrahydrofuran-3-yl)-1H-benzo[d]imidazole-6-carboxylic acid] gave an EC50 of 0.069 nM.
Take `CC1(C)COC[C@H]1n1c(Cc2cc(F)c(-c3ccc(F)c(OCc4c(F)cccc4F)n3)cc2F)nc2ccc(C(=O)O)cc21` [Example 475, (S)-2-(4-(6-((2,6-difluorobenzyl)oxy)-5-fluoropyridin-2-yl)-2,5-difluorobenzyl)-1-(4,4-dimethyltetrahydrofuran-3-yl)-1H-benzo[d]imidazole-6-carboxylic acid]: the EC50 is 0.601 nM.

The values are drawn from patent US12570642B2, “GLP-IR modulating compounds” (Gilead Sciences, Inc., priority 2021, dated 2026).
